Reference: US9943542B2, “Compositions and methods for obtaining an improved lung function” (PHARMALUNDENSIS AB, priority 2013, dated 2018)

Key:
patients with COPD = settings: administered orally; cited from earlier work
[1] = system: lung function (FEV1) of man with moderately severe COPD; experiment: Sequential 2-week treatments in one person with moderately severe COPD; format: in vivo, human
Method: After having stable lung function for around a month, they took 2.73 g activated charcoal in water daily for 2 weeks. […] After that, […] instead took 270 mg I2 daily in a vegetable capsule daily for 2 weeks. […] Thereafter, […] instead took 100 mg potassium perchlorate daily for 2 weeks. […] Following this, […] instead took 3 g IAC (prepared according to example 2, and consisting of 2.73 g activated charcoal with 270 mg iodine) daily for 2 weeks. […] Finally, they took a combination of 100 mg potassium perchlorate and 3 g IAC daily for 2 weeks.

[2] = in vivo; cited from earlier work
[3] = biological target: T1, sodium/iodide symporter (NIS) (Homo sapiens, UniProt Q92911); settings: humans; cited from earlier work
T1 construct: host or cells: thyroid gland of human subjects (in vivo)
T1 sequence (Q92911 1-643): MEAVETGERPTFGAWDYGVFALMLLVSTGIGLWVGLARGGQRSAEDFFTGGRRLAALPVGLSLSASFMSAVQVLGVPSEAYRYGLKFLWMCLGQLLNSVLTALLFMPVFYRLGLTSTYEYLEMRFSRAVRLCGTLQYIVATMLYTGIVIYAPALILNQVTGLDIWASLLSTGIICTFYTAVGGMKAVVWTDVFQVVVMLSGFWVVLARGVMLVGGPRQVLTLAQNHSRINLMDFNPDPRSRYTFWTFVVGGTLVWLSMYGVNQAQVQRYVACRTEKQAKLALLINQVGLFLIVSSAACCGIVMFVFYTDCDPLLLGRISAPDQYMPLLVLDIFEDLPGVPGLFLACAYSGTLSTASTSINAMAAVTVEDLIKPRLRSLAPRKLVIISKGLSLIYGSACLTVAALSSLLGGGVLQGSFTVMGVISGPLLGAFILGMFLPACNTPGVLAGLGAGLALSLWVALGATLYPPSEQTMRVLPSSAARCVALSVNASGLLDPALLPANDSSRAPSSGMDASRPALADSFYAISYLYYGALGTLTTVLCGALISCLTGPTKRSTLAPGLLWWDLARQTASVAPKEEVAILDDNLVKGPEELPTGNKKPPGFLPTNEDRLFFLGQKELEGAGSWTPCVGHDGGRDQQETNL

[4] = biological target: human sodium/iodide symporter (Homo sapiens, UniProt Q92911); settings: versus perchlorate, on a molar concentration basis in serum; cited from earlier work
[5] = system: patients with stable chronic bronchitis; settings: cited from earlier work

In the case of II [I2, iodine], the “effect on lung function” value (patients with COPD) is listed as “does not improve the lung function” and the “effect on lung function (FEV1), in words” value ([1]; in vivo) is listed as “did not improve their lung function”.

For [O-][Cl+3]([O-])([O-])O [potassium perchlorate], the “metabolism and storage in the body” value [2] is listed as “neither metabolised nor stored in the body”, the “level that can temporarily inhibit the thyroid gland's ability to adsorb iodine from the bloodstream” value [3] is listed as “above 0.007 mg/(kg·d)” and the “effect on lung function (FEV1), in words” value ([1]; daily for 2 weeks, one patient) is listed as “did not improve the lung function at all”.

In the case of N#C[S-].[Na+] [thiocyanate, Thiocyanate], the “relative potency for inhibiting iodide uptake by the sodium/iodide symporter” value [4] is given as “lower than that of perchlorate”.

For Iodinated glycerol, the “improvement in pulmonary function” value ([5]; 16 weeks treatment) is given as “lack significant improvement” and the side effects ([5]; human, in vivo) is given as “side effects such as iodine poisoning”.
